In ChEMBL document CHEMBL5230154, “Chemical probe of AHL modulators on quorum sensing in Gram-Negative Bacteria and as antiproliferative agents: A review” (Eur J Med Chem, 2021):

Tests used:
[1] = Inhibition of quorum sensing system in Pseudomonas aeruginosa PAO1 assessed as inhibition of pyocyanin production at 15 uM incubated for 12 hrs by spectrophotometric assay
Pseudomonas aeruginosa [2] = assay: Inhibition of biofilm formation in Pseudomonas aeruginosa PAO1 incubated for 12 hrs by crystal violet staining based analysis; format: functional
[3] = Inhibition of quorum sensing system in Pseudomonas aeruginosa PAO1 assessed as decrease in rhlR expression at 15 uM incubated for 12 hrs by real-time fluorescent quantitative PCR analysis
[4] = Inhibition of quorum sensing system in Pseudomonas aeruginosa PAO1 assessed as inhibition of rhamnolipid production at 15 uM incubated for 12 hrs by spectrophotometric assay
[5] = Inhibition of quorum sensing system in Pseudomonas aeruginosa PAO1 assessed as decrease in pqsA expression at 15 uM incubated for 12 hrs by real-time fluorescent quantitative PCR analysis
[6] = Inhibition of quorum sensing system in Pseudomonas aeruginosa PAO1 assessed as decrease in pqsR expression at 15 uM incubated for 12 hrs by real-time fluorescent quantitative PCR analysis
[7] = Inhibition of quorum sensing system in Pseudomonas aeruginosa PAO1 assessed as inhibition of elastase production at 15 uM incubated for 12 hrs by Congo red dye based spectrophotometric assay
[8] = Inhibition of quorum sensing system in Pseudomonas aeruginosa PAO1 assessed as decrease in lasA expression at 15 uM incubated for 12 hrs by real-time fluorescent quantitative PCR analysis
[9] = Inhibition of quorum sensing system in Pseudomonas aeruginosa PAO1 assessed as decrease in lasI expression at 15 uM incubated for 12 hrs by real-time fluorescent quantitative PCR analysis
Pseudomonas aeruginosa [10] = assay: Inhibition of quorum sensing system in Pseudomonas aeruginosa MH602 expressing PlasB::gfp assessed as inhibition of GFP fluorescence expression at 250 uM incubated for 15 hrs by fluorescence microplate reader analysis
Pseudomonas aeruginosa [11] = assay: Inhibition of quorum sensing system in Pseudomonas aeruginosa MH602 expressing PlasB::gfp assessed as inhibition of GFP fluorescence expression at 62.5 uM incubated for 15 hrs by fluorescence microplate reader analysis
[12] = Antagonist activity against quorum sensing system in Pseudomonas aeruginosa PAO1 transfected with rhlA-lacZ reporter gene assessed as inhibition of beta-galactosidase activity incubated for 24 hrs by elastin-Congo red assay
[13] = Antagonist activity against quorum sensing system in Pseudomonas aeruginosa PAO1 transfected with lasB-lacZ reporter gene assessed as inhibition of beta-galactosidase activity incubated for 24 hrs by elastin-Congo red assay
Pseudomonas aeruginosa [14] = assay: Antibiofilm activity against Pseudomonas aeruginosa PAO1 NCTC 10332 assessed as inhibition of biofilm formation incubated for 24 hrs by crystal violet staining based assay; format: functional, organism-based; settings: PAO1 NCTC 10332, 24 h
[15] = Inhibition of quorum sensing system in Pseudomonas aeruginosa PAO1 assessed as inhibition of RhlR expression incubated for 4 hrs by RT-PCR analysis
Pseudomonas aeruginosa [16] = assay: Anti-motility activity against Pseudomonas aeruginosa PAO1 NCTC 10332 assessed as reduction in swarming at 50 uM and measured after 16 hr by swarming assay; format: functional; set-up: scale not given: the % may be the effect or the level left
[17] = Inhibition of quorum sensing system in Pseudomonas aeruginosa PA14 assessed as inhibition of pyocyanin production by UV-vis spectrophotometric assay
Pseudomonas aeruginosa [18] = assay: Anti-motility activity against Pseudomonas aeruginosa PAO1 NCTC 10332 assessed as reduction in swimming at 50 uM and measured after 18 hr; format: functional; set-up: scale not given: the % may be the effect or the level left
[19] = Inhibition of quorum sensing system in Pseudomonas aeruginosa PAO1 assessed as inhibition of pqsR expression incubated for 4 hrs by RT-PCR analysis
Pseudomonas aeruginosa [20] = assay: Inhibition of Pseudomonas aeruginosa MH602 harboring PlasB::gfp(ASV) reporter assessed as decrease in GFP expression at 250 uM incubated for 22 hrs by fluorescence microplate reader analysis
Escherichia coli [21] = assay: Inhibition of Escherichia coli MT102 harbouring pJBA132 expressing Gfp assessed as inhibition of GFP fluorescence expression at 250 uM incubated for 15 hrs by fluorescence microplate reader analysis
Escherichia coli [22] = assay: Inhibition of Escherichia coli MT102 harbouring pJBA132 expressing Gfp assessed as inhibition of GFP fluorescence expression at 62.5 uM incubated for 15 hrs by fluorescence microplate reader analysis
Escherichia coli [23] = assay: Inhibition of Escherichia coli MT102 harbouring pJBA132 expressing Gfp assessed as inhibition of GFP fluorescence expression at 125 uM incubated for 15 hrs by fluorescence microplate reader analysis

With `O=C(CSC(=S)N[C@H]1CCOC1=O)NC(=O)Nc1cccc2ccccc12` the inhibition [1] was 33%, the “inhibition (INH)” value (Pseudomonas aeruginosa [2]) was 35.3% and the inhibition [3] was 55.5%. The inhibition [4] was 20.8%, the inhibition [5] was 67.7% and the inhibition [6] was 47.9%. The inhibition [7] was 14.3%, the inhibition [8] was 71% and the inhibition [9] was 38.9%.

For `O=C1C(Cl)=C(Cl)CN1CCc1ccc(O)cc1`, the inhibition (Pseudomonas aeruginosa [10]) was 74% and the inhibition (Pseudomonas aeruginosa [11]) was 32.1%.

Compound `CCCCCCCCCC(=O)NC1CCCC1` [N-CYCLOPENTYLDECANAMIDE] has an IC50 [12] of 90 µM and an IC50 [13] of 80 µM.

`Clc1ccc2c(NCCCCCCCCNCc3cc4ccccc4o3)ccnc2c1` showed an IC50 (Pseudomonas aeruginosa [14]) of 50 µM, an IC50 [15] of 40 µM and an Activity (Pseudomonas aeruginosa [16]) of 40%. The IC50 [17] was 12 µM, the Activity (Pseudomonas aeruginosa [18]) was 40% and the IC50 [19] was 25 µM.

With `O=C1C(=O)N(C(=O)CCl)c2ccc([N+](=O)[O-])cc21` the inhibition (Pseudomonas aeruginosa [20]) was 57.3%, the inhibition (Escherichia coli [21]) was 65.8% and the inhibition (Escherichia coli [22]) was 48.5%. It also gave an inhibition (Escherichia coli [23]) of 60.8%.
